How the values were obtained:
WT-EGFR = WT-EGFR (Homo sapiens (Human), UniProt P00533); test: EGFR jump dilution study; type: biochemical; conditions: 100-fold dilution, 1 mM ATP, up to 10 hrs
Experimental: Enzyme:inhibitor complexes were pre-formed at EGFR 100Y^1 final reaction concentration by incubating enzyme with an inhibitor at the greater concentration of either 10Y^1 inhibitor IC50, or 1:1.2 stoichiometry with enzyme.
After incubating enzyme:inhibitor complexes on ice for 30 min, reactions were diluted in two steps 100-fold into reaction buffer supplemented with 1 mM ATP, and 20 uM AssayQuant substrate (AQT0734), with final reaction volumes of 20 μL in a 384 well reaction plate. Wells were read immediately and at timepoints post-dilution for up to 10 hrs in a PerkinElmer Ensight plate reader, according to the AssayQuant manufacturer's instructions.
Data processing: Raw fluorescence signal was first background corrected by subtracting the fluorescence intensity of wells containing only the AssayQuant substrate, and no enzyme. Enzyme activity was normalized relative DMSO controls for each enzyme at each timepoint. In this way, DMSO-treated wells appear as a constant normalized activity=1 throughout the assay.
The X-axis of each of the three graphs represents the time after dilution that the enzyme activity was measured, with t=0 representing the time of jump dilution. The Y-axis of each graph provides the enzymatic activity at each time point. Enzymatic activity is normalized to the DMSO-treated control samples (i.e., the same enzyme variant treated with DMSO instead of compound). As such, a DMSO-normalized value of 1.0 represents full enzymatic activity (i.e., equivalent to the DMSO-treated control), while a value below 1.0 represents reduced activity relative to control (i.e., some degree of enzyme inhibition at the time measured). The data points over time (e.g., from 0 to 600 minutes post-dilution) are therefore indicative of the off-rate for the compound. […] Thus, the jump-dilution data provided a qualitative estimate of the off-rate kinetics for each compound against the panel of EGFR variants. Experiments were run in duplicate, resulting in two different data sets for each graph.

EGFR WT = EGFR WT (Homo sapiens (Human), UniProt P00533); test: EGFR biochemical assay (AssayQuant chelation-enhanced fluorescence); conditions: 30 min preincubation, reaction time 360 min
Sequence of EGFR WT (P00533 668-1210): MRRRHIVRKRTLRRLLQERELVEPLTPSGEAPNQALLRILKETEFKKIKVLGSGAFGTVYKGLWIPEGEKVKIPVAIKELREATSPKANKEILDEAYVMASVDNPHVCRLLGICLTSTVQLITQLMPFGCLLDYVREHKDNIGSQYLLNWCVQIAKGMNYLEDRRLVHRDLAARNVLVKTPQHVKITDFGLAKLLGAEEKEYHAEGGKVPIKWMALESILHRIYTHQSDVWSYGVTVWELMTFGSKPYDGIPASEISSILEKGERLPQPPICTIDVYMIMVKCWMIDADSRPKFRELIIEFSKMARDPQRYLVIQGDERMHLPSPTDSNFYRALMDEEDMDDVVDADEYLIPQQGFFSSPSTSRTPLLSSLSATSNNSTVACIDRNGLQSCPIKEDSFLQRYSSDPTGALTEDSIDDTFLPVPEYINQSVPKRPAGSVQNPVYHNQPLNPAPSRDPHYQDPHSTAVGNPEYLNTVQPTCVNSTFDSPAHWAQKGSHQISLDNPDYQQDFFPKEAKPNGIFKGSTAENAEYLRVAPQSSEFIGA

Sequence of WT-EGFR (P00533 668-1210): as above

SMILES | off-rate kinetics after jump dilution (WT-EGFR) | IC50 (EGFR WT) [µM]
C#CCNC(=O)c1cc(Nc2cc(C3CC3)[nH]n2)nc(N2CCN(Cc3ccc(C=O)c(O)c3)CC2)n1 [Compound 1] | enzymatic activity quickly returned following dilution | –
COc1cc(N2CCC(N3CCN(C)CC3)CC2)ccc1Nc1ncc(Cl)c(Nc2ccccc2-c2cccc(C=O)c2O)n1 [Compound 6] | slow-off kinetics | > 1
COc1cc(N(C)CCN(C)C)c(NC(C)=O)cc1Nc1nccc(-c2cn(Cc3cccc(C=O)c3O)c3ccccc23)n1 [Compound 7] | slow-off kinetics | –
COc1cc(N2CCC(N3CCN(C)CC3)CC2)ccc1Nc1ncc(-c2ccc(O)c(C=O)c2)c(Nc2ccccc2)n1 [Compound 3] | slow-off kinetics | –

Reference: patent US20240409609A1, “REVERSIBLE LYSINE COVALENT MODIFIERS OF EGFR AND USES THEREOF” (Terremoto Biosciences, Inc., priority 2021, published 2024)
